Data on 80 compounds can be found in PubChem BioAssay AID602427 (Sanford-Burnham Center for Chemical Genomics, 2012).

Activity calls are given as the source filed them.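 The calls were made as follows: active = EC50 at or below 20 micromolar; inactive = the rest.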

For the assay, the target named is Neurotensin receptor type 1 (Homo sapiens) (UniProt P30989). Nature of the assay: NTR1 agonists, beta-arrestin recruitment, SAR follow-up, orthogonal assay for NTR1 agonist project, cell-based, luminescence, CHO-K1 NTSR1 PathHunter (AID 602427).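 Also: agonist potency for NTR1 activation where higher luminescence means more arrestin recruitment.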
Chain of Neurotensin receptor type 1 (Homo sapiens) (P30989 whole entry, looked up): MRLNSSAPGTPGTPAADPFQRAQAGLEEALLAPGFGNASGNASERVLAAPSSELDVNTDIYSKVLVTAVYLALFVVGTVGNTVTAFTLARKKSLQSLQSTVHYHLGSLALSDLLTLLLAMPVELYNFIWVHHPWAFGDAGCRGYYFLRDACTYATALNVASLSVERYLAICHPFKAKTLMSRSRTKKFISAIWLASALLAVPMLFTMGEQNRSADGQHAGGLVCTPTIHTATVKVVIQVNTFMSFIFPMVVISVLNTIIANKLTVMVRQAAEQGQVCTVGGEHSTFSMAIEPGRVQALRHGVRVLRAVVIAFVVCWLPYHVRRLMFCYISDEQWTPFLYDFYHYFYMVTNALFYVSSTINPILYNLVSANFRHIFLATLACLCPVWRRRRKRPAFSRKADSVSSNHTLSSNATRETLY
For `O=S(=O)(c1ccc(-c2csc(N/N=C/c3ccco3)n2)cc1)N1CCOCC1`, the EC50 is > 33 µM (inactive). Next, `COc1ccc(-n2ncc3c(N4CCN(c5ccccc5)CC4)ncnc32)cc1`: > 33 µM (inactive); `Clc1cccc(-n2ncc3c(N4CCN(c5ccccc5)CC4)ncnc32)c1`: > 33 µM (inactive); `COc1ccccc1N1CCN(c2nc(C3CCC3)nc3cc4c(cc23)OCO4)CC1`: > 33 µM (inactive).

`COc1cc2c3nnc(-c4ccc(C)c(C)c4)c-3cn(Cc3ccc(C)cc3)c2cc1OC`: the EC50 result is “inactive”. For the compound `N=c1c2ccccc2nc(SCc2ccc(Cl)cc2)n1Cc1ccccc1`, the EC50 is > 33 µM (inactive). Next, `Fc1ccc(-c2nnc3c4cc5c(cc4n(Cc4ccccc4)cc2-3)OCO5)cc1`: > 33 µM (inactive); `Cc1ccc(-n2ncc3c(N4CCN(c5ccccc5)CC4)ncnc32)c(C)c1`: > 33 µM (inactive). For `COc1cc2c3nnc(-c4ccc(F)cc4)c-3cn(Cc3ccc(C)cc3)c2cc1OC`, the EC50 was > 33 µM (inactive). In the case of `COc1ccc(/C=N/Nc2nc(-c3ccc(S(=O)(=O)N(C)C)cc3)cs2)cc1`, the EC50 is > 33 µM (inactive). `CC(C)C[C@H](NC(=O)c1cn(-c2ccnc3ccccc23)c2c(OCc3ccccc3)cccc12)C(=O)O`: the EC50 result is “inactive”.

For `COc1cc2nc(C3CC3)nc(N3CCN(c4ccccc4OC)CC3)c2cc1OC`, the EC50 was 3.8 µM. Next, `COc1ccc(C(=O)c2cn(Cc3ccc(F)cc3)c3ccccc3c2=O)cc1`: > 33 µM (inactive).

Take `COc1cc2c3nnc(-c4ccc(F)cc4)c-3cn(Cc3ccncc3)c2cc1OC`: the EC50 was > 33 µM (inactive). Next, `COc1cc2nc(C3CCC3)nc(N3CCN(c4ccccc4Cl)CC3)c2cc1OC`: > 33 µM (inactive). With `Fc1ccc(-n2ncc3c(N4CCN(c5ccccc5)CC4)ncnc32)cc1`, the EC50 was > 33 µM (inactive). Next, `COc1cccc(OC)c1-c1cc(C(=O)N[C@@H](CC(C)C)C(=O)O)nn1-c1ccnc2cc(Cl)ccc12`: > 33 µM (inactive); `COc1ccc(Cn2cc(C(=O)c3ccc(OC)cc3)c(=O)c3ccccc32)cc1`: > 33 µM (inactive); `COc1cc2c3nnc(-c4ccc(Cl)cc4)c-3cn(Cc3ccc(F)cc3)c2cc1OC`: > 33 µM (inactive). On to `COc1cc2c(=O)c(C(=O)c3ccc(F)cc3)cn(Cc3ccc(Cl)cc3)c2cc1OC`, for which the EC50 is > 33 µM (inactive). Next, `COc1ccc(-c2nnc3c4cc(OC)c(OC)cc4n(Cc4ccc(F)cc4)cc2-3)cc1`: > 33 µM (inactive); `O=C(O)c1nc(-c2ccnc3ccccc23)c(-c2ccccc2)s1`: > 33 µM (inactive). In the case of `COc1ccccc1-c1nc(C(=O)N[C@@H](CC(C)C)C(=O)O)cn1-c1ccncc1`, the EC50 is > 33 µM (inactive).

As for `COc1cc2nc(C3CCCC3)nc(N3CCN(c4ccccc4OC)CC3)c2cc1OC`, the EC50 entry is “inactive”. Next, `Cc1ccc(-n2ncc3c(N4CCN(c5ccccc5Cl)CC4)ncnc32)c(C)c1`: > 33 µM (inactive); `Cc1cccc(C)c1-c1nc(C(=O)N[C@@H](CC(C)C)C(=O)O)cn1-c1ccnc2cc(Cl)ccc12`: > 33 µM (inactive); `COc1cc2c3nnc(-c4ccc(Cl)cc4)c-3cn(Cc3ccccc3)c2cc1OC`: > 33 µM (inactive). With `COc1ccc(N2CCN(c3ncnc4c3cnn4-c3ccc(C)cc3C)CC2)cc1`, the EC50 was > 33 µM (inactive). For the compound `COc1cc2ncc3c(-c4ccc(F)cc4)n[nH]c3c2cc1OC`, the EC50 was > 33 µM (inactive). Take `COc1ccc(C(=O)c2cn(Cc3ccc(Cl)cc3)c3ccccc3c2=O)cc1`: the EC50 was > 33 µM (inactive).

As to `COc1cc2c3nnc(-c4ccccc4)c-3cn(Cc3ccc(C)cc3)c2cc1OC`, the EC50 was > 33 µM (inactive). Consider `Cc1ccc(C)c(-n2ncc3c(N4CCN(c5ccccc5)CC4)ncnc32)c1`, for which the EC50 is > 33 µM (inactive). The figure for `Fc1ccc(Cn2cc3c(-c4ccc(Cl)cc4)nnc-3c3cc4c(cc32)OCO4)cc1` is > 33 µM (inactive); for `CC(C)C[C@H](NC(=O)c1nc(-c2ccnc3ccccc23)c(-c2ccccc2)s1)C(=O)O` it is > 33 µM (inactive). `Cc1ccc(-c2nnc3c4cc5c(cc4n(Cc4ccc(F)cc4)cc2-3)OCO5)cc1C`: the EC50 was > 33 µM (inactive). Next, `COc1cc2nc(-c3ccccc3)nc(N3CCN(c4ccccc4)CC3)c2cc1OC`: > 33 µM (inactive); `COc1ccc(-c2nnc3c4ccccc4n(CC4CC4)cc2-3)cc1`: > 33 µM (inactive). Next, `COc1cc2nc(Cc3ccccc3)nc(N3CCN(c4ccccc4OC)CC3)c2cc1OC`: > 33 µM (inactive). Next, `Clc1ccccc1-n1ncc2c(N3CCN(c4ccccc4)CC3)ncnc21`: > 33 µM (inactive).

Take `COc1ccc(-c2nnc3c4ccccc4n(Cc4ccc(F)cc4)cc2-3)cc1`: the EC50 was > 33 µM (inactive).

Take `COc1cc2c3nnc(-c4ccc(F)cc4)c-3cn(Cc3cccc(N(C)C)c3)c2cc1OC`: the EC50 is > 33 µM (inactive).

As to `Cc1cccc(-n2ncc3c(N4CCN(c5ccccc5)CC4)ncnc32)c1`, the EC50 is > 33 µM (inactive). Turning to `COc1ccc2c(c1)c1nnc(-c3ccc(F)cc3)c-1cn2Cc1ccccc1`, the EC50 is > 33 µM (inactive).

For the compound `Cc1ccc(/C=N/Nc2nc(-c3ccc(S(=O)(=O)N(C)C)cc3)cs2)cc1`, the EC50 is > 33 µM (inactive). Next, `COc1ccccc1-c1cc(C(=O)N[C@@H](CC(C)C)C(=O)O)nn1-c1ccnc2cc(Cl)ccc12`: 0.546 µM. Next, `COc1ccc(Cn2cc(C(=O)c3ccc(F)cc3)c(=O)c3cc(OC)c(OC)cc32)cc1`: > 33 µM (inactive).

Regarding `COc1cc2c(=O)c(C(=O)c3ccc(F)cc3)cn(Cc3ccncc3)c2cc1OC`, the EC50 is > 33 µM (inactive). Next, `CCn1cc2c(-c3ccc(F)cc3)nnc-2c2cc(OC)c(OC)cc21`: > 33 µM (inactive); `COc1cc2nc(C)nc(N3CCN(c4ccccc4OC)CC3)c2cc1OC`: > 33 µM (inactive); `c1ccc(Cn2cc3c(-c4ccccc4)nnc-3c3ccccc32)cc1`: > 33 µM (inactive).

For `COc1cc2c(=O)c(C(=O)c3ccc(F)cc3)cn(Cc3ccc(N(C)C)cc3)c2cc1OC`, the EC50 is > 33 µM (inactive).

Regarding `COc1ccc2c(c1)c(=O)c(C(=O)c1ccc(F)cc1)cn2Cc1ccc(F)cc1`, the EC50 is > 33 µM (inactive).

For the compound `COc1cc2nc(C3CCC3)nc(N3CCN(c4ccccc4)CC3)c2cc1OC`, the EC50 is > 33 µM (inactive). Regarding `COc1cc2c3nnc(-c4ccc(C)c(C)c4)c-3cn(Cc3ccccc3)c2cc1OC`, the EC50 entry was “inactive”. With `COc1ccc(-c2nnc3c4ccccc4n(Cc4ccncc4)cc2-3)cc1`, the EC50 was > 33 µM (inactive). Regarding `CCOc1cc2nc(-c3ccc(OC)c(OC)c3)nc(N3CCN(c4ccccc4)CC3)c2cc1OC`, the EC50 is > 33 µM (inactive). On to `CCOc1cc2nc(-c3ccc(OC)c(OC)c3)nc(N3CCN(c4ccccc4F)CC3)c2cc1OC`, for which the EC50 is > 33 µM (inactive).

Consider `COc1cc2nc(C3CCC3)nc(N3CCN(c4ccccc4C)CC3)c2cc1OC`, for which the EC50 is > 33 µM (inactive). With `CN(C)S(=O)(=O)c1ccc(-c2csc(N/N=C/c3cccs3)n2)cc1`, the EC50 is > 33 µM (inactive). Next, `COc1cc2nc(C3CCC3)nc(N3CCN(c4ccccc4F)CC3)c2cc1OC`: > 33 µM (inactive); `COc1cc2c3nnc(-c4ccc(F)cc4)c-3cn(Cc3cccnc3)c2cc1OC`: > 33 µM (inactive). Next, `COc1cc2nc(-c3ccccc3)nc(N3CCN(c4ccccc4F)CC3)c2cc1OC`: > 33 µM (inactive); `COc1cc2c3nnc(-c4ccc(F)cc4)c-3cn(Cc3ccc(F)cc3)c2cc1OC`: > 33 µM (inactive). The figure for `Cc1ccc(Cn2cc3c(-c4ccc(F)cc4)nnc-3c3ccccc32)cc1` is > 33 µM (inactive); for `Cc1cc(Cl)ccc1-n1ncc2c(N3CCN(c4ccccc4)CC3)ncnc21` it is > 33 µM (inactive). As to `CCN(CC)S(=O)(=O)c1ccc(-c2csc(N/N=C/c3ccco3)n2)cc1`, the EC50 is > 33 µM (inactive).

Consider `COc1cccc(OC)c1-c1nc(C(=O)N[C@@H](CC(C)C)C(=O)O)cn1-c1ccnc2ccccc12`, for which the EC50 is 18.2 µM. With `COc1cc2nc(SCc3ccncc3)n(Cc3cccc(C(F)(F)F)c3)c(=N)c2cc1OC`, the EC50 was > 33 µM (inactive).

Consider `COc1ccc(Cn2c(SCc3cccc(C(F)(F)F)c3)nc3cc(OC)c(OC)cc3c2=N)cc1Cl`, for which the EC50 was > 33 µM (inactive). For the compound `COc1cccc(OC)c1-c1nc(C(=O)N[C@@H](CC(C)C)C(=O)O)cn1-c1ccncc1`, the EC50 is > 33 µM (inactive). The figure for `COc1ccc(Cn2cc3c(-c4ccc(OC)cc4)nnc-3c3ccccc32)cc1` is > 33 µM (inactive); for `COc1cc2c3nnc(-c4ccc(C)cc4)c-3cn(Cc3ccccc3)c2cc1OC` it is “inactive”; for `CC(C)C[C@H](NC(=O)c1cn(-c2ccnc3ccccc23)c2ccccc12)C(=O)O` it is > 33 µM (inactive).

As for `COc1ccc(C(=O)c2cn(CCc3ccccc3)c3ccccc3c2=O)cc1`, the EC50 is > 33 µM (inactive). Next, `Cc1ccc(-n2ncc3c(N4CCN(c5cccc(Cl)c5)CC4)ncnc32)c(C)c1`: > 33 µM (inactive); `COc1ccc2c(c1)c(=O)c(C(=O)c1ccc(F)cc1)cn2Cc1ccccc1`: > 33 µM (inactive). Next, `COc1cc2c3nnc(-c4ccc(F)cc4)c-3cn(Cc3ccc(OC(F)(F)F)cc3)c2cc1OC`: > 33 µM (inactive); `COc1ccc(N2CCN(c3nc(C4CCC4)nc4cc(OC)c(OC)cc34)CC2)cc1`: > 33 µM (inactive). Turning to `COc1ccc(-c2nnc3c4ccccc4n(Cc4ccc(OC(F)(F)F)cc4)cc2-3)cc1`, the EC50 is > 33 µM (inactive).

Regarding `COc1cc2c3nnc(-c4ccc(F)cc4)c-3cn(Cc3ccc(Cl)cc3)c2cc1OC`, the EC50 is > 33 µM (inactive).
